Results published in article PMC3486884 (PLoS Pathogens, 2012).

Columns and labels:
HRV1A [1] = tested on: HRV1A
HRV1A [2] = assay: microbe, parasite or virus in culture; conditions: Human rhinovirus sp., M-HeLa, 7 h; for activity at 0.03 µM: read-out: HRV1A infection (dsRNA), 0.03 µM; for activity at 0.1 µM: read-out: HRV1A infection (dsRNA), 0.10 µM; for activity at 0.31 µM: read-out: HRV1A infection (dsRNA), 0.31 µM; for activity at 0.93 µM: read-out: HRV1A infection (dsRNA), 0.93 µM; for activity at 2.78 µM: read-out: HRV1A infection (dsRNA), 2.78 µM; for activity at 8.33 µM: read-out: HRV1A infection (dsRNA), 8.33 µM; for activity at 25 µM: read-out: HRV1A infection (dsRNA), 25.00 µM

COc1ccccc1C(=O)Nc1ccc(C(F)(F)F)cc1Cl [TVB-1323]
antiviral activity against HRV1A (structure-activity study, in words) (HRV1A [1]): reduced antiviral efficacy | activity at 0.03 µM (HRV1A [2]): 101% | activity at 0.1 µM (HRV1A [2]): 95% | activity at 0.31 µM (HRV1A [2]): 97% | activity at 0.93 µM (HRV1A [2]): 97% | activity at 2.78 µM (HRV1A [2]): 106% | activity at 8.33 µM (HRV1A [2]): 108% | activity at 25 µM (HRV1A [2]): 113%

COc1c(C)cccc1C(=O)Nc1ccc([N+](=O)[O-])cc1Cl [TVB-1324]
antiviral activity against HRV1A (structure-activity study, in words) (HRV1A [1]): eliminated antiviral activity | activity at 0.03 µM (HRV1A [2]): 104% | activity at 0.1 µM (HRV1A [2]): 105% | activity at 0.31 µM (HRV1A [2]): 98% | activity at 0.93 µM (HRV1A [2]): 99% | activity at 2.78 µM (HRV1A [2]): 88% | activity at 8.33 µM (HRV1A [2]): 94% | activity at 25 µM (HRV1A [2]): 107%

COC(=O)c1ccc(Cl)c(NC(=O)c2ccccc2OC)c1 [TVB-1325]
antiviral activity against HRV1A (structure-activity study, in words) (HRV1A [1]): reduced antiviral efficacy | activity at 0.03 µM (HRV1A [2]): 91% | activity at 0.1 µM (HRV1A [2]): 97% | activity at 0.31 µM (HRV1A [2]): 86% | activity at 0.93 µM (HRV1A [2]): 95% | activity at 2.78 µM (HRV1A [2]): 83% | activity at 8.33 µM (HRV1A [2]): 73% | activity at 25 µM (HRV1A [2]): 80%

CCC(=O)Nc1ccc(Cl)c(NC(=O)c2ccccc2OC)c1 [TVB-1327]
antiviral activity against HRV1A (structure-activity study, in words) (HRV1A [1]): reduced antiviral efficacy | activity at 0.03 µM (HRV1A [2]): 118% | activity at 0.1 µM (HRV1A [2]): 118% | activity at 0.31 µM (HRV1A [2]): 110% | activity at 0.93 µM (HRV1A [2]): 107% | activity at 2.78 µM (HRV1A [2]): 96% | activity at 8.33 µM (HRV1A [2]): 107% | activity at 25 µM (HRV1A [2]): 115%

CCOc1ccccc1C(=O)Nc1ccc([N+](=O)[O-])cc1Cl [TVB-1328]
antiviral activity against HRV1A (structure-activity study, in words) (HRV1A [1]): eliminated antiviral activity | activity at 0.03 µM (HRV1A [2]): 99% | activity at 0.1 µM (HRV1A [2]): 90% | activity at 0.31 µM (HRV1A [2]): 86% | activity at 0.93 µM (HRV1A [2]): 89% | activity at 2.78 µM (HRV1A [2]): 90% | activity at 8.33 µM (HRV1A [2]): 95% | activity at 25 µM (HRV1A [2]): 107%

COc1ccc(Cl)cc1C(=O)Nc1cc([N+](=O)[O-])ccc1Cl [TVB-1330]
antiviral activity against HRV1A (structure-activity study, in words) (HRV1A [1]): reduced antiviral efficacy | activity at 0.03 µM (HRV1A [2]): 101% | activity at 0.1 µM (HRV1A [2]): 103% | activity at 0.31 µM (HRV1A [2]): 99% | activity at 0.93 µM (HRV1A [2]): 97% | activity at 2.78 µM (HRV1A [2]): 101% | activity at 8.33 µM (HRV1A [2]): 105% | activity at 25 µM (HRV1A [2]): 111%

CCOc1ccccc1C(=O)Nc1ccc(Cl)cc1Cl [TVB-1331]
antiviral activity against HRV1A (structure-activity study, in words) (HRV1A [1]): eliminated antiviral activity | activity at 0.03 µM (HRV1A [2]): 119% | activity at 0.1 µM (HRV1A [2]): 118% | activity at 0.31 µM (HRV1A [2]): 112% | activity at 0.93 µM (HRV1A [2]): 107% | activity at 2.78 µM (HRV1A [2]): 108% | activity at 8.33 µM (HRV1A [2]): 106% | activity at 25 µM (HRV1A [2]): 113%

COc1ccccc1C(=O)Nc1ccc([N+](=O)[O-])cc1Cl [TVB-1333]
antiviral activity against HRV1A (structure-activity study, in words) (HRV1A [1]): eliminated antiviral activity | activity at 0.03 µM (HRV1A [2]): 112% | activity at 0.1 µM (HRV1A [2]): 99% | activity at 0.31 µM (HRV1A [2]): 107% | activity at 0.93 µM (HRV1A [2]): 92% | activity at 2.78 µM (HRV1A [2]): 84% | activity at 8.33 µM (HRV1A [2]): 157% | activity at 25 µM (HRV1A [2]): 207%

Nc1ccc(NC(=O)c2cc(Cl)ccc2O)c(Cl)c1 [TVB-1335]
antiviral activity against HRV1A (structure-activity study, in words) (HRV1A [1]): eliminated antiviral activity | activity at 0.03 µM (HRV1A [2]): 109% | activity at 0.1 µM (HRV1A [2]): 102% | activity at 0.31 µM (HRV1A [2]): 103% | activity at 0.93 µM (HRV1A [2]): 105% | activity at 2.78 µM (HRV1A [2]): 98% | activity at 8.33 µM (HRV1A [2]): 96% | activity at 25 µM (HRV1A [2]): 104%

O=C(Nc1ccc(NS(=O)(=O)c2ccccc2)cc1Cl)c1cc(Cl)ccc1O [TVB-1336]
antiviral activity against HRV1A (structure-activity study, in words) (HRV1A [1]): eliminated antiviral activity | activity at 0.03 µM (HRV1A [2]): 102% | activity at 0.1 µM (HRV1A [2]): 97% | activity at 0.31 µM (HRV1A [2]): 105% | activity at 0.93 µM (HRV1A [2]): 105% | activity at 2.78 µM (HRV1A [2]): 104% | activity at 8.33 µM (HRV1A [2]): 105% | activity at 25 µM (HRV1A [2]): 103%

COc1ccc(Br)cc1C(=O)Nc1cc([N+](=O)[O-])ccc1Cl [TVB-1337]
antiviral activity against HRV1A (structure-activity study, in words) (HRV1A [1]): reduced antiviral efficacy | activity at 0.03 µM (HRV1A [2]): 112% | activity at 0.1 µM (HRV1A [2]): 104% | activity at 0.31 µM (HRV1A [2]): 107% | activity at 0.93 µM (HRV1A [2]): 104% | activity at 2.78 µM (HRV1A [2]): 105% | activity at 8.33 µM (HRV1A [2]): 111% | activity at 25 µM (HRV1A [2]): 117%
